In PMC7329795 (Pharmacological Reports, 2020):
Like-named read-outs stand apart in the source and are kept apart here.

How the values were obtained:
CYP2C9 [1] = target: T1, CYP2C9 (Homo sapiens, UniProt P11712); experiment: in vitro
Description: (§1) The final incubation volume was 0.5 ml. After a 30-min incubation, the reaction was stopped by adding 100 µl of acetonitrile. […] The final concentration of CYP2C9 was 50 pmol/ml. Concentrations of diclofenac and its metabolite 4′-hydroxydiclofenac, formed in liver microsomes or Supersomes 2C9, were assessed by the HPLC method with UV detection, as described previously.

[2] = target: human cDNA-expressed CYP2C9 (Homo sapiens, UniProt P11712); experiment: CYP2C9 activity, diclofenac 4′-hydroxylation, Supersomes CYP2C9
Sequence of human cDNA-expressed CYP2C9 (P11712 whole entry): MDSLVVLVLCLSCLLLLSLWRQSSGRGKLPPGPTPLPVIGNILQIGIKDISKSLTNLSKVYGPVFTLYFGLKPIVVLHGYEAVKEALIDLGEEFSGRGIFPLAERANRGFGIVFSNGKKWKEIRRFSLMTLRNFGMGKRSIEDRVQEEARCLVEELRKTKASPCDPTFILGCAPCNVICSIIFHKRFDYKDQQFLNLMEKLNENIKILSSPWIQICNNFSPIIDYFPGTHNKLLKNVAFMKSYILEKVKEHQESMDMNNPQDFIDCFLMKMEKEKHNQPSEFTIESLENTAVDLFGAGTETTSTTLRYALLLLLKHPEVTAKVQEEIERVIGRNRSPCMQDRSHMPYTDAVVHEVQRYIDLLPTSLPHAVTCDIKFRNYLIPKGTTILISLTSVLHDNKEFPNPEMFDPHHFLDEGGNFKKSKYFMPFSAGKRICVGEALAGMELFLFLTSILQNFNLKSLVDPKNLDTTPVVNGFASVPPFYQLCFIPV
Description: as §1

CYP2C9 [3] = target: T1, CYP2C9; experiment: as above; conditions: human, pH 7.4, probe diclofenac (4′-hydroxylation)
Description: as §1

[4] = clinical studies; cited from earlier work
CYP2C19 [5] = target: T2, CYP2C19 (Homo sapiens, UniProt P33261); conditions: liver microsomes; asenapine 0.01-10 μM
CYP2C19 [6] = target: T2, CYP2C19
[7] = cited from earlier work
[8] = target: T3, human cDNA-expressed CYP2D6 (Homo sapiens, UniProt P10635); conditions: recombinant enzyme
T3 sequence (P10635 whole entry): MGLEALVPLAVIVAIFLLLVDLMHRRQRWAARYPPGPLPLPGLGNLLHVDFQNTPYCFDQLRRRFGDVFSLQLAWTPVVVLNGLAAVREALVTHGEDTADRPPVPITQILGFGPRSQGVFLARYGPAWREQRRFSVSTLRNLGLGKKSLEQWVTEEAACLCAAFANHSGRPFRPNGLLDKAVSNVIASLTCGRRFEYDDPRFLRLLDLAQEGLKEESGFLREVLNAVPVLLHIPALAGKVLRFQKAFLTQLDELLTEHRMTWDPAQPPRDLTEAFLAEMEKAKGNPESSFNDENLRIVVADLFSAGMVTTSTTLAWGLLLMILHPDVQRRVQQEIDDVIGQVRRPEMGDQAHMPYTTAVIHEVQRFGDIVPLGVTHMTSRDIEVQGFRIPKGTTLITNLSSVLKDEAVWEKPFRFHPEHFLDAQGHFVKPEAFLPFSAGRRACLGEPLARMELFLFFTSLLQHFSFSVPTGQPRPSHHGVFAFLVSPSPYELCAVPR

[9] = target: human cDNA-expressed CYP3A4 (Homo sapiens, UniProt P08684)
Sequence of human cDNA-expressed CYP3A4 (P08684 whole entry): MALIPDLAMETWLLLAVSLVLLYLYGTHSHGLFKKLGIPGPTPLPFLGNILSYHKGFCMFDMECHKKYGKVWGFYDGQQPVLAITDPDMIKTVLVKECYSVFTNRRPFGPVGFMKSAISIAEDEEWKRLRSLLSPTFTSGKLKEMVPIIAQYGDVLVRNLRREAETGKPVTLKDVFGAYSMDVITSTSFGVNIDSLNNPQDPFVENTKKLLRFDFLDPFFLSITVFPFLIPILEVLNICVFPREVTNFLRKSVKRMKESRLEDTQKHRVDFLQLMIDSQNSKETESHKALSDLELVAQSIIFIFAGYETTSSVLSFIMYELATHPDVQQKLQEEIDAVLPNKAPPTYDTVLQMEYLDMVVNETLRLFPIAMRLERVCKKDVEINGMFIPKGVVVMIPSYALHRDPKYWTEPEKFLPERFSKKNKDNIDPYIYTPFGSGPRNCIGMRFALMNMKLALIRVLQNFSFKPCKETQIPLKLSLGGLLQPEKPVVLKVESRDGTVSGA

CYP1A2 [10] = target: T4, CYP1A2 (Homo sapiens, UniProt P05177); conditions: liver microsomes; Lineweaver–Burk's plots
T4 sequence (P05177 1-516): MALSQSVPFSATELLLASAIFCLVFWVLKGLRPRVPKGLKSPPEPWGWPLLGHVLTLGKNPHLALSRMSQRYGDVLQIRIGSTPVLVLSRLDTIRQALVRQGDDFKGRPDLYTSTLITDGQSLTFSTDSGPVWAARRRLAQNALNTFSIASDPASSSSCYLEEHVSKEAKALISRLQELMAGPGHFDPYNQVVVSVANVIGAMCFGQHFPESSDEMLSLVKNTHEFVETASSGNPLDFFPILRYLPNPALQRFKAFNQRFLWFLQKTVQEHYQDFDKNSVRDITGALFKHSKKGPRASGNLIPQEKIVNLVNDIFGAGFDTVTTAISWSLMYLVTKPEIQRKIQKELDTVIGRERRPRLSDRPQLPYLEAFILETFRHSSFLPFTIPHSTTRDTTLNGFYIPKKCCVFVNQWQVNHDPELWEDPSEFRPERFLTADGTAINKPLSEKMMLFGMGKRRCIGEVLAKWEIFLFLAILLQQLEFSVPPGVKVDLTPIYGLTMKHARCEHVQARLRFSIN

CYP2D6 [11] = target: T5, CYP2D6 (Homo sapiens, UniProt P10635); parameters: method as in PMID 26033329; conditions: psychiatric patients; cited from earlier work
T5 sequence (P10635 whole entry): as the sequence (P10635 whole entry) above

[12] = cited from earlier work; remark: listed apart in the source
[13] = target: T3, human cDNA-expressed CYP2D6
CYP3A4 [14] = target: T6, CYP3A4 (Homo sapiens, UniProt P08684)
T6 sequence (P08684 whole entry): as the sequence (P08684 whole entry) above

CYP1A2 [15] = target: T4, CYP1A2
CYP2D6 [16] = target: T5, CYP2D6; conditions: liver microsomes; Lineweaver–Burk's plots
[17] = cited from earlier work; remark: listed apart in the source
CYP2D6 [18] = target: T5, CYP2D6
CYP3A4 [19] = target: T6, CYP3A4; experiment: in vitro; conditions: pH 7.4
CYP3A4 [20] = target: T6, CYP3A4; experiment: in vitro; conditions: pH 7.4; remark: listed apart in the source
[21] = substrate: Cn1c(=O)c2c(ncn2C)n(C)c1=O
[22] = substrate: CN1CCN(CCCN2c3ccccc3Sc3ccccc32)CC1

T1 sequence (P11712 whole entry): as the sequence (P11712 whole entry) above

O=C(O)Cc1ccccc1Nc1c(Cl)cccc1Cl [diclofenac]
Km at 30 min (CYP2C9 [1]; human, pH 7.4): 137 µM | Vmax, diclofenac 4′-hydroxylation ([2]; Supersomes CYP2C9): 213.6 pmol/pmol CYP/min | Km at 30 min (CYP2C9 [3]): 132 µM

O=C(CCCN1CCC(O)(c2ccc(Cl)cc2)CC1)c1ccc(F)cc1 [haloperidol]
concentration in the liver relative to that in plasma [4]: 900 fold

CN1CC2c3ccccc3Oc3ccc(Cl)cc3C2C1 (stereo not drawn) [Asenapine]
IC50 (CYP2C9 [1]): > 1000 µM | effect on the activity of CYP2C9 (CYP2C9 [1]; liver microsomes, asenapine 0.01-10 μM): did not affect | effect on the activity of CYP2C19 (CYP2C19 [5]): did not affect | IC50 (CYP2C19 [6]): > 1000 µM | estimated terminal half-life (t1/2) ([7]; adults): approximately 24 h | therapeutic plasma concentrations [7]: up to 0.1 μM | IC50 [2]: > 1000 µM | type of inhibition (CYP2D6) [8]: competitive | type of inhibition (CYP3A4) ([9]; recombinant enzyme): non-competitive | type of inhibition (CYP1A2) (CYP1A2 [10]): mixed | effect on the concentration of paroxetine (a CYP2D6 substrate) in the blood plasma (CYP2D6 [11]): doubled | pKa ([12]; amine): 9.64 | log P ([12]; cationic form): 1.4 | log P ([12]; neutral form): 4.9 | pKa ([12]; protonated base): 8.6 | IC50 [13]: 0.398 µM | Ki [13]: 1.89 µM | type of inhibition (CYP3A4) (CYP3A4 [14]; liver microsomes, Lineweaver–Burk's plots): non-competitive | IC50 (CYP1A2 [15]): 0.697 µM | Ki (CYP1A2 [15]): 3.2 µM | type of inhibition (CYP2D6) (CYP2D6 [16]): competitive | bound to plasma proteins [17]: 95% | IC50 (CYP2D6 [18]): 0.391 µM | Ki (CYP2D6 [18]): 1.75 µM

C[C@]12CC[C@H]3[C@@H](CCC4=CC(=O)CC[C@@]43C)[C@@H]1CC[C@@H]2O [testosterone]
Km at 20 min (CYP3A4 [19]): 283 µM | Km at 30 min (CYP3A4 [20]): 428 µM | Vmax, testosterone 6β-hydroxylation ([9]; Supersomes CYP3A4): 42.9 pmol/pmol CYP/min | Vmax, testosterone 6β-hydroxylation (CYP3A4 [14]; human liver microsomes): 72.9 pmol/mg protein/min

B1: CYP1A2 (Homo sapiens) (protein)
chain: MALSQSVPFSATELLLASAIFCLVFWVLKGLRPRVPKGLKSPPEPWGWPLLGHVLTLGKNPHLALSRMSQRYGDVLQIRIGSTPVLVLSRLDTIRQALVRQGDDFKGRPDLYTSTLITDGQSLTFSTDSGPVWAARRRLAQNALNTFSIASDPASSSSCYLEEHVSKEAKALISRLQELMAGPGHFDPYNQVVVSVANVIGAMCFGQHFPESSDEMLSLVKNTHEFVETASSGNPLDFFPILRYLPNPALQRFKAFNQRFLWFLQKTVQEHYQDFDKNSVRDITGALFKHSKKGPRASGNLIPQEKIVNLVNDIFGAGFDTVTTAISWSLMYLVTKPEIQRKIQKELDTVIGRERRPRLSDRPQLPYLEAFILETFRHSSFLPFTIPHSTTRDTTLNGFYIPKKCCVFVNQWQVNHDPELWEDPSEFRPERFLTADGTAINKPLSEKMMLFGMGKRRCIGEVLAKWEIFLFLAILLQQLEFSVPPGVKVDLTPIYGLTMKHARCEHVQARLRFSIN
Km [21]: 709 µM | Vmax [21]: 9.67 pmol/mg protein/min

B2: CYP2C19 (Homo sapiens) (protein)
chain: MDPFVVLVLCLSCLLLLSIWRQSSGRGKLPPGPTPLPVIGNILQIDIKDVSKSLTNLSKIYGPVFTLYFGLERMVVLHGYEVVKEALIDLGEEFSGRGHFPLAERANRGFGIVFSNGKRWKEIRRFSLMTLRNFGMGKRSIEDRVQEEARCLVEELRKTKASPCDPTFILGCAPCNVICSIIFQKRFDYKDQQFLNLMEKLNENIRIVSTPWIQICNNFPTIIDYFPGTHNKLLKNLAFMESDILEKVKEHQESMDINNPRDFIDCFLIKMEKEKQNQQSEFTIENLVITAADLLGAGTETTSTTLRYALLLLLKHPEVTAKVQEEIERVIGRNRSPCMQDRGHMPYTDAVVHEVQRYIDLIPTSLPHAVTCDVKFRNYLIPKGTTILTSLTSVLHDNKEFPNPEMFDPRHFLDEGGNFKKSNYFMPFSAGKRICVGEGLARMELFLFLTFILQNFNLKSLIDPKDLDTTPVVNGFASVPPFYQLCFIPV
Km [22]: 199.9 µM | Vmax [22]: 1.58 nmol/mg protein/min
